Data taken from publication PMC9026428, “New Peptide Based Fluconazole Conjugates with Expanded Molecular Targets” (Pharmaceutics, 2022).
Converted amounts (≈) assume the structure as drawn. Non-standard residues stand in square brackets, D forms with d. Residues, ends and D or L forms follow the SMILES beside them. *: point of attachment. X1 = O=C(CCCC(=O)*)OC(Cn1cncn1)(Cn1cncn1)c1ccc(F)cc1F; Nle = CCCC[C@H](N)C(=O)O

Experiments:
Candida albicans 138 = test: microbe, parasite or virus in culture; settings: 37 °C; for MIC50 / MIC90: C. albicans 138 (fluconazole-resistant clinical isolate), RPMI 1640/MOPS pH 7.0, 24 h, triplicate; for MIC50: at least 50% growth inhibition vs growth control; for MIC90: lowest concentration with no visible growth
Method in brief: (§1)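 Yeasts were exposed to compounds in MOPS-buffered RPMI 1640 (pH 7.0) following a modified CLSI M27-A3 protocol and incubated 24 h at 37 °C. Wells were then subcultured onto drug-free YPD agar for a further 24 h to obtain minimum fungicidal concentrations.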

Candida albicans 190 = test: microbe, parasite or virus in culture; settings: 37 °C; for MIC50 / MIC90: C. albicans 190 (fluconazole-resistant clinical isolate), RPMI 1640/MOPS pH 7.0, 24 h, triplicate; for MIC50: at least 50% growth inhibition vs growth control; for MIC90: lowest concentration with no visible growth
Method in brief: (§2)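 Broth microdilution per CLSI M27-A3 (modified) in RPMI 1640 buffered to pH 7.0 with 0.165 M MOPS, 24 h at 37 °C, ~1% DMSO, in triplicate. MFC was read by subculturing well aliquots onto inhibitor-free YPD agar for 24 h at 37 °C. B3 is a fluconazole-sensitive clinical isolate.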

Candida albicans 247 = test: microbe, parasite or virus in culture; settings: 37 °C; for MIC50 / MIC90: C. albicans 247 (fluconazole-resistant clinical isolate), RPMI 1640/MOPS pH 7.0, 24 h, triplicate; for MIC50: at least 50% growth inhibition vs growth control; for MIC90: lowest concentration with no visible growth
Method in brief: as §2

Candida albicans 48 = test: microbe, parasite or virus in culture; settings: 37 °C; for MIC50 / MIC90: C. albicans 48 (fluconazole-resistant clinical isolate), RPMI 1640/MOPS pH 7.0, 24 h, triplicate; for MIC50: at least 50% growth inhibition vs growth control; for MIC90: lowest concentration with no visible growth
Method in brief: as §2

Candida albicans 574 = test: microbe, parasite or virus in culture; settings: C. albicans 574 (fluconazole-resistant clinical isolate), RPMI 1640/MOPS pH 7.0, 24 h, 37 °C, triplicate; for MIC50: at least 50% growth inhibition vs growth control; for MIC90: lowest concentration with no visible growth
Method in brief: as §2

Candida albicans Gu4 = test: microbe, parasite or virus in culture; settings: 37 °C; for MIC50 / MIC90: C. albicans Gu4 (fluconazole-sensitive isolate), RPMI 1640/MOPS pH 7.0, 24 h, triplicate; for MIC50: at least 50% growth inhibition vs growth control; for MIC90: lowest concentration with no visible growth
Method in brief: as §1

Candida albicans Gu5 = test: microbe, parasite or virus in culture; settings: C. albicans Gu5 (fluconazole-resistant, CDR1/2 overexpression), RPMI 1640/MOPS pH 7.0, 24 h, 37 °C, triplicate; for MIC50: at least 50% growth inhibition vs growth control; for MIC90: lowest concentration with no visible growth
Method in brief: as §1

Candida albicans SC 5314 = test: microbe, parasite or virus in culture; settings: C. albicans SC 5314, 37 °C; for MIC50 / MIC90: RPMI 1640/MOPS pH 7.0, 24 h, triplicate; for MIC50: at least 50% growth inhibition vs growth control; for MIC90: lowest concentration with no visible growth; for MFC: aliquots plated on YPD agar, 24 h, lowest concentration with no colony growth
Method in brief: as §2

[1] = system: Candida glabrata DSM 6128; test: microbe, parasite or virus in culture; settings: C. glabrata DSM 6128, RPMI 1640/MOPS pH 7.0, 24 h, 37 °C, triplicate; for MIC50: at least 50% growth inhibition vs growth control; for MIC90: lowest concentration with no visible growth
Method in brief: as §2

C. albicans SC5314 [2] = test: Membrane permeabilization assay by propidium iodide uptake (flow cytometry, fluorescence microscopy); format: cell-based, Candida albicans
Protocol: Suspensions of C. albicans SC5314 were prepared by taking one loop of pure culture growth from 24 h YPD agar plates into RPMI 1640 medium and adjusting optical density to 0.1 at 660 nm wavelength. […] The cell suspensions were then treated for 0.5, 2, 4, 6, and 24 h at 37 °C with continuous agitation (180 rpm). The cells were then centrifuged and resuspended in 200 µL of PBS buffer (pH 7.4). Subsequently, cells were treated with propidium iodide (1 mg/mL, final concentration) and incubated for 30 min at room temperature in the dark. Cellular fluorescence was visualized using lens 20×, using Olympus Fluorescence Microscope BX60 (Olympus, Tokyo, Japan). The images were also post-processed utilizing cell Sens program. The fluorescence intensity emitted by DNA-bound propidium iodide was measured using a flow cytometer (Merck Millipore guava easyCyte 8, Darmstadt, Germany). Data were obtained from at least two independent experiments.

C. albicans SC5314 [3] = settings: C. albicans SC5314, 1 × MFC, time-kill over 24 h, RPMI 1640, 37 °C
Protocol: Antifungal time-kill studies were carried out by a method previously described and evaluated by Klepser et al. [40]. A starting inoculum was prepared by inoculating a tube of sterile water with growth from 24 h YPD agar plates (C. albicans SC5314), and OD660 was adjusted to about 0.1 (around 10^6 cells per 1 mL). […] A negative control (growth medium without drug or organism) was also included at each time of testing. Tubes were incubated at 37 °C on an orbital shaker and vortexed before removing a sample for the determination of colony counts. After the appropriate time of incubation (0.5, 2, 4, 6, and 24 h), 1 mL of each suspension was centrifuged (2 min, 9170× g), and the pellet was re-suspended in 1 mL of PBS pH 7.4. Ten-fold serial dilutions with PBS were prepared, and 100 μL of each was inoculated on YPD agar plates in duplicate. Plates were incubated for 24 h at 37 °C. Colony forming units in the range of 30–300 were counted (on the plates containing from 30 to 300 colonies) and the number of yeast cells in 1 mL (CFU/mL) was calculated [21].

| Structure (SMILES) | MIC50 (Candida albicans 138) | MIC90 (Candida albicans 138) | MIC50 (Candida albicans 190) | MIC90 (Candida albicans 190) | MIC50 (Candida albicans 247) | MIC90 (Candida albicans 247) | MIC50 (Candida albicans 48) | MIC90 (Candida albicans 48) | MIC50 (Candida albicans 574) | MIC90 (Candida albicans 574) | MIC50 (Candida albicans Gu4) | MIC90 (Candida albicans Gu4) | MIC50 (Candida albicans Gu5) | MIC90 (Candida albicans Gu5) | MIC50 (Candida albicans SC 5314) | MIC90 (Candida albicans SC 5314) | MIC50 [1] | MIC90 [1] | MFC (Candida albicans SC 5314) | also measured |
| --- | --- | --- | --- | --- | --- | --- | --- | --- | --- | --- | --- | --- | --- | --- | --- | --- | --- | --- | --- | --- |
| O=C(O)CCCC(=O)OC(Cn1cncn1)(Cn1cncn1)c1ccc(F)cc1F [FLCpOH] | >250 µM | >250 µM | >250 µM | >250 µM | >250 µM | >250 µM | >250 µM | >250 µM | >250 µM | >250 µM | >250 µM | >250 µM | >250 µM | >250 µM | >250 µM | >250 µM | >250 µM | >250 µM | – | – |
| CC[C@H](C)[C@H](NC(=O)[C@H](CCCCN)NC(=O)[C@H](CCCCN)NC(=O)[C@H](C)NC(=O)[C@H](CC(C)C)NC(=O)[C@H](C)NC(=O)[C@H](C)NC(=O)[C@H](CC(C)C)NC(=O)[C@H](C)NC(=O)[C@H](CCCCN)NC(=O)[C@H](CC(C)C)NC(=O)[C@H](CC(N)=O)NC(=O)[C@@H](NC(=O)[C@H](CCCCN)NC(=O)CNC(=O)[C@H](CC(C)C)NC(=O)[C@H](CC(C)C)NC(=O)[C@H](Cc1ccc(O)cc1)NC(=O)CNC(=O)[C@H](C)NC(=O)CCCC(=O)OC(Cn1cncn1)(Cn1cncn1)c1ccc(F)cc1F)[C@@H](C)CC)C(=O)N[C@@H](CC(C)C)C(N)=O [FLCpOH-TP10-NH2] | 45 µM (≈ 116 µg/mL) | 62 µM (≈ 160 µg/mL) | 45 µM (≈ 116 µg/mL) | 62 µM (≈ 160 µg/mL) | 45 µM (≈ 116 µg/mL) | 62 µM (≈ 160 µg/mL) | 45 µM (≈ 116 µg/mL) | 62 µM (≈ 160 µg/mL) | 45 µM (≈ 116 µg/mL) | 62 µM (≈ 160 µg/mL) | 45 µM (≈ 116 µg/mL) | 62 µM (≈ 160 µg/mL) | 62 µM (≈ 160 µg/mL) | 125 µM (≈ 323 µg/mL) | 8 µM (≈ 20.7 µg/mL) | 15 µM (≈ 38.8 µg/mL) | 62 µM (≈ 160 µg/mL) | 125 µM (≈ 323 µg/mL) | 31 µM (≈ 80.1 µg/mL) | MFC (Candida albicans 138; C. albicans 138, aliquots plated on YPD agar, 24 h, lowest concentration with no colony growth): 250 µM (≈ 646 µg/mL); MFC (Candida albicans 190; C. albicans 190, aliquots plated on YPD agar, 24 h, lowest concentration with no colony growth): 250 µM (≈ 646 µg/mL); MFC (Candida albicans 247; C. albicans 247, aliquots plated on YPD agar, 24 h, lowest concentration with no colony growth): 250 µM (≈ 646 µg/mL); MFC (Candida albicans 48; C. albicans 48, aliquots plated on YPD agar, 24 h, lowest concentration with no colony growth): 250 µM (≈ 646 µg/mL); MFC (Candida albicans Gu4; C. albicans Gu4, aliquots plated on YPD agar, 24 h, lowest concentration with no colony growth): 62 µM (≈ 160 µg/mL); cell membrane disruption (PI uptake), in words (C. albicans SC5314 [2]): significant cell membrane damage; reduction in yeast cell count (C. albicans SC5314 [3]): 1 log10 |
| CCCC[C@H](NC(=O)CCCC(=O)OC(Cn1cncn1)(Cn1cncn1)c1ccc(F)cc1F)C(=O)N[C@@H](Cc1ccccc1)C(=O)N[C@@H](CCCCN)C(=O)N[C@@H](CS)C(=O)N[C@@H](CCCNC(=N)N)C(=O)N[C@@H](CCCNC(=N)N)C(=O)N[C@@H](Cc1c[nH]c2ccccc12)C(=O)N[C@@H](CCC(N)=O)C(=O)N[C@@H](Cc1c[nH]c2ccccc12)C(=O)N[C@@H](CCCNC(=N)N)C(=O)N[C@@H](CCCC)C(=O)N[C@@H](CCCCN)C(=O)N[C@@H](CCCCN)C(=O)N[C@@H](CC(C)C)C(=O)NCC(N)=O [FLCpOH-LFacinB[Nle^1,11]-NH2] (X1-[Nle]FKCRRWQWR[Nle]KKLG-NH2) | 23 µM (≈ 55.7 µg/mL) | 31 µM (≈ 75 µg/mL) | 90 µM (≈ 218 µg/mL) | 125 µM (≈ 302 µg/mL) | 45 µM (≈ 109 µg/mL) | 62 µM (≈ 150 µg/mL) | 250 µM (≈ 605 µg/mL) | >250 µM | 45 µM (≈ 109 µg/mL) | 62 µM (≈ 150 µg/mL) | 125 µM (≈ 302 µg/mL) | 250 µM (≈ 605 µg/mL) | >250 µM | >250 µM | 23 µM (≈ 55.7 µg/mL) | 31 µM (≈ 75 µg/mL) | 250 µM (≈ 605 µg/mL) | >250 µM | 250 µM (≈ 605 µg/mL) | – |
| CSCC[C@H](NC(=O)[C@H](CCCNC(=N)N)NC(=O)[C@H](Cc1c[nH]c2ccccc12)NC(=O)[C@H](CCC(N)=O)NC(=O)[C@H](Cc1c[nH]c2ccccc12)NC(=O)[C@H](CCCNC(=N)N)NC(=O)[C@H](CCCNC(=N)N)NC(=O)[C@H](CS)NC(=O)[C@H](CCCCN)NC(=O)[C@H](Cc1ccccc1)NC(=O)CCCC(=O)OC(Cn1cncn1)(Cn1cncn1)c1ccc(F)cc1F)C(N)=O [FLCpOH-LFacinB(2-11)-NH2] (X1-FKCRRWQWRM-NH2) | 190 µM (≈ 361 µg/mL) | 250 µM (≈ 475 µg/mL) | 190 µM (≈ 361 µg/mL) | 250 µM (≈ 475 µg/mL) | 190 µM (≈ 361 µg/mL) | 250 µM (≈ 475 µg/mL) | 250 µM (≈ 475 µg/mL) | >250 µM | 190 µM (≈ 361 µg/mL) | 250 µM (≈ 475 µg/mL) | >250 µM | >250 µM | >250 µM | >250 µM | 62 µM (≈ 118 µg/mL) | 125 µM (≈ 237 µg/mL) | >250 µM | >250 µM | 250 µM (≈ 475 µg/mL) | – |
| CSCC[C@H](NC(=O)[C@H](C)NC(=O)[C@H](CCCNC(=N)N)NC(=O)[C@H](CCCCN)NC(=O)[C@H](Cc1c[nH]c2ccccc12)NC(=O)[C@H](CCC(N)=O)NC(=O)[C@H](Cc1ccccc1)NC(=O)[C@H](CS)NC(=O)CCCC(=O)OC(Cn1cncn1)(Cn1cncn1)c1ccc(F)cc1F)C(=O)N[C@@H](CCCNC(=N)N)C(=O)N[C@@H](CCCCN)C(=O)N[C@H](C(=O)N[C@@H](CCCNC(=N)N)C(N)=O)C(C)C [FLCpOH-HLopt2-NH2] (X1-CFQWKRAMRKVR-NH2) | >250 µM | >250 µM | 250 µM (≈ 503 µg/mL) | >250 µM | >250 µM | >250 µM | 250 µM (≈ 503 µg/mL) | >250 µM | 250 µM (≈ 503 µg/mL) | >250 µM | >250 µM | >250 µM | >250 µM | >250 µM | 62 µM (≈ 125 µg/mL) | 125 µM (≈ 251 µg/mL) | >250 µM | >250 µM | – | – |
